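These data come from cells grown in 96-well plates and exposed to compound for 48 hours at five concentrations. The concentration for 50% growth inhibition is given as GI50. TGI is the concentration that stops growth completely.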
Tests used:
Experiment in all cases: inhibition of tumour cell growth, NCI panel, 48 h
CAKI-1 renal = test system: CAKI-1 renal
HCT-15 colon = test system: HCT-15 colon
KM12 colon = test system: KM12 colon
MALME-3M melanoma = test system: MALME-3M melanoma
NCI-H23 lung = test system: NCI-H23 lung
OVCAR-3 ovarian = test system: OVCAR-3 ovarian
OVCAR-8 ovarian = test system: OVCAR-8 ovarian
RPMI-8226 leukemia = test system: RPMI-8226 leukemia
SF-295 CNS = test system: SF-295 CNS
SNB-75 CNS = test system: SNB-75 CNS

Row | Structure (SMILES) | TGI (CAKI-1 renal) [µM] | TGI (HCT-15 colon) [µM] | TGI (KM12 colon) [µM] | TGI (MALME-3M melanoma) [µM] | TGI (NCI-H23 lung) [µM] | TGI (OVCAR-3 ovarian) [µM] | TGI (OVCAR-8 ovarian) [µM] | TGI (RPMI-8226 leukemia) [µM] | TGI (SF-295 CNS) [µM] | TGI (SNB-75 CNS) [µM] | GI50 (CAKI-1 renal) [µM] | GI50 (HCT-15 colon) [µM] | GI50 (KM12 colon) [µM] | GI50 (MALME-3M melanoma) [µM] | GI50 (NCI-H23 lung) [µM] | GI50 (OVCAR-3 ovarian) [µM] | GI50 (OVCAR-8 ovarian) [µM] | GI50 (RPMI-8226 leukemia) [µM] | GI50 (SF-295 CNS) [µM] | GI50 (SNB-75 CNS) [µM]
1 | NC(N)=NS(=O)(=O)c1ccc(NC(=O)c2cccc3c(Nc4ccc(S(N)(=O)=O)cc4)c4ccccc4nc23)cc1 | > 100 | > 100 | > 100 | > 100 | > 100 | > 100 | > 100 | > 100 | > 100 | > 100 |  |  |  |  |  |  |  |  |  | 
2 | N=S(c1ccccc1)c1ccccc1[N+](=O)[O-] (stereo not drawn) | 28.8 | 30.4 | 32.7 | 30.1 | 35.2 | 23.2 | 51.5 | 54.6 | 36.7 | 95.1 |  |  |  |  |  |  |  |  |  | 
3 | O=C(NC12CC3CC(CC(C3)C1)C2)C(=O)c1c[nH]c2ccc(Cl)cc12 |  | > 100 | > 100 | > 100 | > 100 | 57.6 |  | > 100 | 65.2 | 52.1 |  |  |  |  |  |  |  |  |  | 
4 | OB1OCc2cc(/C=C/c3cccc(C(F)(F)F)c3)ccc21 | 10.2 | > 100 | > 100 | 54.3 | 80.6 | 17.8 | 24.2 | > 100 | 16.1 | 6.2 | 0.349 | 1.33 | 2.26 | 7.65 | 0.625 | 1.37 | 0.918 | 2.38 | 0.432 | 0.852
5 | NC(=O)c1cccc(Nc2nccc(Nc3cccc(F)c3)n2)c1 | > 25 | > 25 | > 25 | > 25 | > 25 | > 25 | > 25 | > 25 | > 25 | > 23.4 | 7.24 | 7.69 | 7.27 | 10.3 | 10.6 | 10 | 9.49 | 11.4 | 9.82 | 6.22
6 | Cl[Si]1(Cl)Oc2ccccc2O[Si](Cl)(Cl)Oc2ccccc2O1 | 97.5 | > 100 | > 100 | > 100 | 84.6 | > 100 | > 100 | > 100 | 98.2 | 99.1 |  |  |  |  |  |  |  |  |  | 
7 | CCOC1Oc2ccccc2-c2oc(=O)c(Sc3ccc(C)cc3)cc21 (stereo not drawn) | > 100 | > 100 | > 100 | 91.6 | > 100 | > 100 | > 100 | 35.5 | > 100 | > 100 | 35.4 | 27.6 | 34.4 | 24.6 | 40.4 | 18.1 | 51 | 9.66 | 19.2 | 32.6
8 | Cc1ccc(S(=O)(=O)N/N=C(\c2nc3ccc([N+](=O)[O-])cc3[nH]c2=O)C(O)c2ccccc2Cl)cc1 (stereo not drawn) | > 100 | > 100 | > 100 | > 100 | > 100 | > 100 | > 100 | > 100 | > 100 | > 100 |  |  |  |  |  |  |  |  |  | 

Source: PubChem BioAssay (NCI)
